From ChEMBL document CHEMBL3879912, “4-alkoxy/aralkoxy-5-substituted-pyrrolopyrimidine compounds as TAK1 inhibitors in disease treatment” (2014)

These molecules were tested against TAK1/TAB1 (Homo sapiens, UniProt O43318) (assay: Inhibition of kinase tracer-236 binding to full length recombinant human His-tagged TAK1-TAB1 expressed in baculovirus by FRET assay).
Chain of TAK1/TAB1 (Q15750 whole entry): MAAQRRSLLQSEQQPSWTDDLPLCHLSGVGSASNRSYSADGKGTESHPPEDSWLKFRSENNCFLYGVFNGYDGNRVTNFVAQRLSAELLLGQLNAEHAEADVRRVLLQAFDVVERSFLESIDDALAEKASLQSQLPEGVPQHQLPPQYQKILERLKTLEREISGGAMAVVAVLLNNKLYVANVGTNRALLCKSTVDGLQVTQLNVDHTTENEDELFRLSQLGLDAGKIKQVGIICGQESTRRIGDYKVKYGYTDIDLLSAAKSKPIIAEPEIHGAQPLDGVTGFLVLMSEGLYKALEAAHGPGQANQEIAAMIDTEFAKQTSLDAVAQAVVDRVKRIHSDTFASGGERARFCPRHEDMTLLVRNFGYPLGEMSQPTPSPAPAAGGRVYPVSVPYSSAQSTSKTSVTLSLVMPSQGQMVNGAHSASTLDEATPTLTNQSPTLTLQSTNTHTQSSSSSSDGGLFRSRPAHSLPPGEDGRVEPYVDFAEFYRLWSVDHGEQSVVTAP
Chain of TAK1/TAB1 (O43318 whole entry): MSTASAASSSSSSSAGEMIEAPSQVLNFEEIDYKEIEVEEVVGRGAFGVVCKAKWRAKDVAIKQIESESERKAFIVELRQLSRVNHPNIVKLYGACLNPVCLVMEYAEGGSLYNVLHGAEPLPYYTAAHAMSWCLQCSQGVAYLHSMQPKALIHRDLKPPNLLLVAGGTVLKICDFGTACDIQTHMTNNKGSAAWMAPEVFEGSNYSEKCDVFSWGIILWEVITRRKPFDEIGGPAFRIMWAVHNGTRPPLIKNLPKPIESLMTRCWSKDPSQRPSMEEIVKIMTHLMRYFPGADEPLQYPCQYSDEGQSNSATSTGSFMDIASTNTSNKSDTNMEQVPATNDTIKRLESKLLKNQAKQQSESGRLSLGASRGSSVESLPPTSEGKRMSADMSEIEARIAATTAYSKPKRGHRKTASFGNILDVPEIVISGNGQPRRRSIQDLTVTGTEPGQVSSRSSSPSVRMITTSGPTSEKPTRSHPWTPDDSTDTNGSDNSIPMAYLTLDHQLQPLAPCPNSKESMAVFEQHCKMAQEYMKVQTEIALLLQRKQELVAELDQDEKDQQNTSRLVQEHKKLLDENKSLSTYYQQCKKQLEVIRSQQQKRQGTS

Compound	IC50 [nM]
CC(C)COc1ncnc2[nH]cc(C#CC(N)=O)c12	7
COC(=O)/C(C)=C/c1c[nH]c2ncnc(OCC(C)C)c12	430
NC(=O)/C=C/c1c[nH]c2ncnc(OCc3cccc(F)c3)c12	51

More lines, now with the values ahead:

IC50 [nM]	Compound
1700	CC(=O)c1c[nH]c2ncnc(OCC(C)C)c12
330	N#C/C=C/c1c[nH]c2ncnc(OCc3ccccc3)c12
